Patent publication US4098798A, “Adriamycins, process for their preparation and uses thereof” (Societa' Farmaceutici Italia S.p.A., priority 1974, dated 1978)
Converted amounts (≈) assume the structure as drawn. Read-outs that look alike come from different tables or passages of the source.

Tests used:
Ascites Sarcoma 180 = test: Action on Ascites Sarcoma 180 in mice; format: in vivo, mice (Swiss CD 1); conditions: for Average Survival time: one day after inoculation, untreated = 100%
Method: The tests were carried out on groups of 10 mice (Swiss CD 1). The compounds under examination were administered intraperitoneally in varying doses to the test animals one day after intraperitoneal inoculation with 1 × 10^6 tumor cells per animal. The average survival time is given in Table 1 as a percentage of the survival time of untreated animals, which is arbitrarily designated as 100%. Also given in Table 1 are the number of long term survivors.

B-subtilis = test: inhibition zones on agar-B-subtilis plates, paper disc technique; format: cell-based; conditions: hydrochlorides, read-out: inhibition zone diameter; for zone of inhibition at 10 µg/disc: 10 μg; for zone of inhibition at 20 µg/disc: 20 μg
HeLa cells = test: Cloning Efficiency of Hela cells in vitro; format: cell-based; conditions: for IC50: Homo sapiens, HeLa, 50% inhibition of colonies
Method: After treatment for 2,8 or 24 hours, HeLa cells were seeded (200 cells per plate) and the number of colonies determined 8 days later.
The ID50 represents the dose which gives a 50% of inhibition of colonies.

[1] = cell proliferation in uninfected mouse embryo fibroblast cultures (cytotoxic action); format: cell-based; conditions: mouse embryo fibroblasts, treatment of 3 days, read-out: Cytotoxic Action ID50
Method: (§1) The test compounds were evaluated on mouse embryo fibroblast cultures infected with MSV and on similar uninfected cultures. After a treatment of 3 days, the inhibiting doses (ID50) were evaluated on cell proliferation in uninfected cultures (cytotoxic action) and on MSV foci formation in infected cultures (antiviral action).

L1210 Leukemia = test: Action on L1210 Leukemia in mice; format: in vivo, BDF1 mice; conditions: 5 times every two hours on days 1 and 2
Excerpt: Inbred BDF1 mice were intraperitoneally inoculated with 10^5 leukemia cells/mouse, and then treated (intraperitoneally) 5 times (every two hours) on days 1 and 2 after the tumor inoculation with varying doses of the compounds under examination.

Solid Sarcoma 180 = test: Activity on Solid Sarcoma 180 in mice; format: in vivo, Swiss CD 1 mice; conditions: for % Inhibition tumor growth: 10th day
[2] = test system: Moloney Sarcoma Virus (MSV); test: MSV foci formation in infected mouse embryo fibroblast cultures (antiviral action); format: cell-based; conditions: 72 h, treatment of 3 days, read-out: Antiviral Action ID50
Method: as §1

[3] = Cardiotoxic activity in vitro, beating of myocardial cells; format: cell-based, mice; conditions: mouse, 0.5 μg/ml, read-out: decrease of beating
[4] = test system: Transplanted Gross Leukemia; test: Action on Transplanted Gross Leukemia in mice; format: in vivo, C3 H/He mice; conditions: first to fifth day
Excerpt: Inbred C3 H/He mice were intravenously inoculated with […] leukemia cells/mouse and treated, intravenously, from the first to the fifth day after inoculation with the compounds under examination.

[5] = Table 7, 2h treatment, read-out: DI50 (the source's name)
[6] = Table 7, 8h treatment, read-out: DI50 (the source's name)
[7] = Table 7, 24h treatment, read-out: DI50 (the source's name)
[8] = Table 8, 2h treatment, read-out: DI 50 (the source's name)
[9] = Table 8, 8h treatment, read-out: DI 50 (the source's name)
[10] = Table 8, 24h treatment, read-out: DI 50 (the source's name)
[11] = Table 7, 0.1 μg/ml, 8h, control 125
[12] = Table 7, 0.1 μg/ml, 24h, control 223
[13] = Table 7, 0.25 μg/ml, 8h, control 125
[14] = Table 7, 0.25 μg/ml, 24h, control 223
[15] = Table 7, 0.5 μg/ml, 8h, control 125
[16] = Table 7, 0.5 μg/ml, 24h, control 223
[17] = Table 7, 1 μg/ml, 2h, control 132
[18] = Table 7, 1 μg/ml, 8h, control 125
[19] = Table 7, 1 μg/ml, 24h, control 223
[20] = Table 8, 0.125 μg/ml, 2h, control 156
[21] = Table 8, 0.25 μg/ml, 8h, control 189
[22] = Table 8, 0.25 μg/ml, 24h, control 136
[23] = Table 8, 0.5 μg/ml, 2h, control 156
[24] = Table 8, 0.5 μg/ml, 8h, control 189
[25] = 1.25 mg/Kg subcutaneously every 2 hrs for 5 times at days 1 and 3
[26] = 1.75 mg/Kg subcutaneously every 2 hrs for 5 times at days 1 and 3
[27] = 2 mg/Kg intravenously twice a day on days 1,2,3
[28] = 2.45 mg/Kg subcutaneously every 2 hrs for 5 times at days 1 and 3
[29] = 2.5 mg/Kg intravenously once a day on days 1,2,3,4,5
[30] = 2.5 mg/Kg intravenously twice a day on days 1,2,3
[31] = 3 mg/Kg intravenously twice a day on days 1,2,3

## COc1cccc2c1C(=O)c1c(O)c3c(c(O)c1C2=O)C[C@@](O)(C(=O)CO)C[C@@H]3O[C@H]1C[C@H](N)[C@@H](O)[C@H](C)O1 [4'-Epi-adriamycin (α-anomer), 7-0-(3'-amino-2',3',6'-trideoxy-α-L-arabinohexopyranosyl)-adriamycinone]
Ascites Sarcoma 180; 0.5 mg/Kg i.p.
  Long Term Survivors (after 60 days): 0/10
  Average Survival time: 135%
Ascites Sarcoma 180; 2 mg/Kg i.p.
  Long Term Survivors (after 60 days): 0/10
  Average Survival time: 184%
Ascites Sarcoma 180; 10 mg/Kg i.p.
  Long Term Survivors (after 60 days): 1/8
  Average Survival time: 234%
B-subtilis; 5 μg
  zone of inhibition at 5 µg/disc: 19 mm
B-subtilis
  zone of inhibition at 10 µg/disc: 21 mm
  zone of inhibition at 20 µg/disc: 23 mm
B-subtilis; 15 μg
  zone of inhibition at 15 µg/disc: 22 mm
HeLa cells; [5]
  IC50: 0.85 µg/mL (≈ 1.56 µM)
HeLa cells; [6]
  IC50: 0.7 µg/mL (≈ 1.29 µM)
HeLa cells; [7]
  IC50: 0.36 µg/mL (≈ 0.662 µM)
HeLa cells; [8]
  IC50: 5 µg/mL (≈ 9.2 µM)
HeLa cells; [9]
  IC50: 0.2 µg/mL (≈ 0.368 µM)
HeLa cells; [10]
  IC50: 0.2 µg/mL (≈ 0.368 µM)
HeLa cells; [11]
  Average Number of Colonies: 158
HeLa cells; [12]
  Average Number of Colonies: 216
HeLa cells; [13]
  Average Number of Colonies: 150
HeLa cells; [14]
  Average Number of Colonies: 199
HeLa cells; [15]
  Average Number of Colonies: 92
HeLa cells; [16]
  Average Number of Colonies: 52
HeLa cells; [17]
  Average Number of Colonies: 57
HeLa cells; [18]
  Average Number of Colonies: 36
HeLa cells; [19]
  Average Number of Colonies: 29
HeLa cells; [20]
  Average Number of Colonies: 245
HeLa cells; Table 8, 0.125 μg/ml, 8h, control 189
  Average Number of Colonies: 170
HeLa cells; [21]
  Average Number of Colonies: 43
HeLa cells; [22]
  Average Number of Colonies: 46
HeLa cells; [23]
  Average Number of Colonies: 130
HeLa cells; [24]
  Average Number of Colonies: 45
HeLa cells; Table 8, 0.5 μg/ml, 24h, control 136
  Average Number of Colonies: 38
HeLa cells; Table 8, 1 μg/ml, 8h, control 189
  Average Number of Colonies: 27
HeLa cells; Table 8, 1 μg/ml, 24h, control 136
  Average Number of Colonies: 17

## COc1cccc2c1C(=O)c1c(O)c3c(c(O)c1C2=O)C[C@@](O)(C(=O)CO)C[C@@H]3O[C@H]1C[C@H](N)[C@H](O)[C@H](C)O1 [Adriamycin, 7-0-(3'-amino-2',3',6'-trideoxy-α-L-lyxohexopyranosyl)-adriamycinone]
[1]
  CC50 at 72 h: 0.01 µg/mL (≈ 0.0184 µM)
L1210 Leukemia; 0.75 mg/Kg i.p.
  Average Survival time: 160%
L1210 Leukemia; 1 mg/Kg i.p.
  Average Survival time: 155%
  Long Term Survivors (after 60 days): 1/10
L1210 Leukemia; 1.25 mg/Kg i.p.
  Average Survival time: 175%
Solid Sarcoma 180; [25]
  Average Survival time: 112%
  Toxic Deaths (at 10th day): 0/10
  % Inhibition tumor growth: 69%
Solid Sarcoma 180; [26]
  Average Survival time: 87%
  Toxic Deaths (at 10th day): 1/10
  % Inhibition tumor growth: 75%
Solid Sarcoma 180; [27]
  Average Survival time: 100%
  Toxic Deaths (at 10th day): 1/10
  % Inhibition tumor growth: 70%
Solid Sarcoma 180; [28]
  Average Survival time: 32%
  Toxic Deaths (at 10th day): 6/10
Solid Sarcoma 180; [29]
  Toxic Deaths (at 10th day): 0/10
  % Inhibition tumor growth: 54%
Solid Sarcoma 180; [30]
  Average Survival time: 100%
  Toxic Deaths (at 10th day): 2/10
  % Inhibition tumor growth: 71%
Solid Sarcoma 180; [31]
  Average Survival time: 57%
  Toxic Deaths (at 10th day): 6/10
Solid Sarcoma 180; 3.5 mg/Kg intravenously once a day on days 1,2,3,4,5
  Toxic Deaths (at 10th day): 7/10
[2]
  IC50: 0.005 µg/mL (≈ 0.0092 µM)
[3]
  inhibition at 2 h: 50%
Ascites Sarcoma 180; 1 mg/Kg i.p.
  Long Term Survivors (after 60 days): 0/10
  Average Survival time: 169%
Ascites Sarcoma 180; 5 mg/Kg i.p.
  Long Term Survivors (after 60 days): 2/10
  Average Survival time: 276%
B-subtilis
  zone of inhibition at 10 µg/disc: 21 mm
  zone of inhibition at 20 µg/disc: 23 mm
HeLa cells; [5]
  IC50: 0.17 µg/mL (≈ 0.313 µM)
HeLa cells; [6]
  IC50: 0.14 µg/mL (≈ 0.258 µM)
HeLa cells; [7]
  IC50: 0.016 µg/mL (≈ 0.0294 µM)
HeLa cells; [8]
  IC50: 0.35 µg/mL (≈ 0.644 µM)
HeLa cells; [9]
  IC50: 0.18 µg/mL (≈ 0.331 µM)
HeLa cells; [10]
  IC50: 0.125 µg/mL (≈ 0.23 µM)
HeLa cells; Table 7, 0.05 μg/ml, 24h, control 223
  Average Number of Colonies: 76
HeLa cells; Table 7, 0.1 μg/ml, 2h, control 132
  Average Number of Colonies: 79
HeLa cells; [11]
  Average Number of Colonies: 73
HeLa cells; [12]
  Average Number of Colonies: 48
HeLa cells; Table 7, 0.25 μg/ml, 2h, control 132
  Average Number of Colonies: 46
HeLa cells; [13]
  Average Number of Colonies: 38
HeLa cells; [14]
  Average Number of Colonies: 20
HeLa cells; Table 7, 0.5 μg/ml, 2h, control 132
  Average Number of Colonies: 42
HeLa cells; [15]
  Average Number of Colonies: 16
HeLa cells; [16]
  Average Number of Colonies: 0
HeLa cells; [17]
  Average Number of Colonies: 21
HeLa cells; [18]
  Average Number of Colonies: 8
HeLa cells; [19]
  Average Number of Colonies: 0
HeLa cells; [20]
  Average Number of Colonies: 166
HeLa cells; Table 8, 0.125 μg/ml, 24h, control 136
  Average Number of Colonies: 69
HeLa cells; Table 8, 0.25 μg/ml, 2h, control 156
  Average Number of Colonies: 92
HeLa cells; [21]
  Average Number of Colonies: 28
HeLa cells; [22]
  Average Number of Colonies: 43
HeLa cells; [23]
  Average Number of Colonies: 27
HeLa cells; [24]
  Average Number of Colonies: 14
[4]; 2 mg/Kg i.v.
  Long Term Survivors (after 60 days): 0/10
  Average Survival time, Exp. 1: 183%
[4]; 2.5 mg/Kg i.v.
  Long Term Survivors (after 60 days): 0/20
  Average Survival time, Exp. 1: 208%
  Average Survival time, Exp. 2: 186%
[4]; 2.75 mg/Kg i.v.
  Long Term Survivors (after 60 days): 0/10
  Average Survival time, Exp. 1: 208%
[4]; 3 mg/Kg i.v.
  Long Term Survivors (after 60 days): 0/10
  Average Survival time, Exp. 2: 186%
[4]; 3.6 mg/Kg i.v.
  Long Term Survivors (after 60 days): 0/10
  Average Survival time, Exp. 2: 200%
